Where “and” joins values, the source holds several entries; their conditions need not be identical. Equal values may be shown once.
Molecular target: PfAsnRS (Plasmodium falciparum, UniProt O96198)
Experiment: biochemical
Conditions: for ATP consumption: PfAsnRS, normalised to 1 (Fig 3D)

PfAsnRS, sequence (O96198 entry or part of it): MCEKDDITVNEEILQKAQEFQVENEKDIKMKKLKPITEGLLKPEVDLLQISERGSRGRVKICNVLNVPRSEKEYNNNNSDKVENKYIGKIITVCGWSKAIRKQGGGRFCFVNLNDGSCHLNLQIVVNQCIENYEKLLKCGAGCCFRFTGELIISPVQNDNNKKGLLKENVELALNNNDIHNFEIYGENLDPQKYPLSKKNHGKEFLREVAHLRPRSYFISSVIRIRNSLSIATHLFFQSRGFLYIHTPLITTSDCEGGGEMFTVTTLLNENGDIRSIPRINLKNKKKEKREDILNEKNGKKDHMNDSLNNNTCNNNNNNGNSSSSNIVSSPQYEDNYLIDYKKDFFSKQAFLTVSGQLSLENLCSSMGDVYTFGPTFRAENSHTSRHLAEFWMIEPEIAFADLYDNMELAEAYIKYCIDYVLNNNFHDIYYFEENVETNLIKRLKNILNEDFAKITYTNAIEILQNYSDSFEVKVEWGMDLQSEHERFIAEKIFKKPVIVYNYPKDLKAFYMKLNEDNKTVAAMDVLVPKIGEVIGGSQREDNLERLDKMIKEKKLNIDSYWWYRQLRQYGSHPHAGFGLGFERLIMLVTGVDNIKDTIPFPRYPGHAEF

Q: With `Nc1ncnc2c1ncn2[C@@H]1O[C@H](COS(N)(=O)=O)[C@@H](O)[C@H]1O` [AMS, adenosine 5’-O-sulfamate, reference compound] as the molecule, how does the ATP consumption (0.03 μM AMS, 0.03 µM) read?
A: The ATP consumption was 0.946.

Q: And the ATP consumption (0.1 μM AMS, 0.1 µM)?
A: Its ATP consumption is 0.5414 and 0.637.

Q: What about the ATP consumption (0.3 μM AMS, 0.3 µM) of the same molecule?
A: Its ATP consumption is 0.3347 and 0.4652.

Q: And the ATP consumption (1 μM AMS, 1 µM)?
A: Its ATP consumption is 0.189 and 0.2604.

Q: What about the ATP consumption (3 μM AMS, 3 µM) of the same molecule?
A: Its ATP consumption is 0.1468 and 0.18.

Q: And the ATP consumption (10 μM AMS, 10 µM)?
A: Its ATP consumption is 0.0653 and 0.08191.

Q: And the ATP consumption (30 μM AMS, 30 µM)?
A: Its ATP consumption is 0.09691 and 0.0585.

Q: What about the IC50 (IC50, ATP consumption, 0.05 μM PfAsnRS, E. coli tRNA present, 37 °C, 1 h (Fig. 3C, D)) of the same molecule?
A: Its IC50 is 190 nM.

From article PMC10831071, “Reaction hijacking inhibition of Plasmodium falciparum asparagine tRNA synthetase” (Nature Communications, 2024)
